# Test results reported in patent US9724338B2, “Methods of using (+)-1,4-dihydro-7-[(3S,4S)-3-methoxy-4-(methylamino)-1-pyrrolidinyl]-4-OXO-1-(2-thiazolyl)-1,8-naphthyridine-3-carboxylic acid for treatment of antecedent hematologic disorders” (SUNESIS PHARMACEUTICALS, INC., priority 2007, dated 2017).
# Key:
# [1] = test system: MDS that had transformed to refractory CMML (progressed to AML); assay: Clinical study: treatment with SNS-595 of a patient with MDS transformed to refractory CMML (Example 2); type: in vivo, human; details: 72 mg/m^2 once per week for three weeks; for Peripheral Blasts: slow IV push
# Description: A patient with MDS that had transformed to refractory CMML was enrolled in this study. The patient was diagnosed about 26 months prior to the study and was given 8 cycles of azacitadine (Vidaza®) about 10 months prior to the study. They were then treated with mitoxantrone+VP16 for 1 cycle, about 4 months prior to the study. […] The patient had initial marrow blast count of 39%. The following observations were noted on days 15 and 35.
# [2] = test system: relapsed CMML (transformed to AML); assay: Clinical study: treatment with SNS-595 of a patient with relapsed CMML (Example 3); type: in vivo, human; details: 50 mg/m^2 twice a week; for Marrow blasts: slow IV push
# Description: A patient with relapsed CMML (transformed to AML) was enrolled. The patient was diagnosed about 17 months prior to the study, was treated with 1 cycle of a Southwest Oncology Group (SWOG) regimen after diagnosis. They were given 4 cycles of azacitidine (Vidaza®) about 14 months prior to the study and 1 cycle of decitabine, about 6 months before the study.
# [3] = test system: advanced or refractory acute leukemias; assay: Clinical study: dose-escalating treatment of acute leukemia with SNS-595 (Example 4); type: in vivo, human
# Description: Minimum cycle length was 42 days for Arm A and 39 days for Arm B, respectively. Additional cycles were permitted if patients achieved stable disease or better. […] Pre- and post-dose bone marrow aspirates were obtained from a subset of patients to assess biomarkers.
# [4] = Solubility of SNS-595 in compositions for injection or intravenous infusion (Example 1); type: physicochemical; details: Acidic compositions (<pH 4)
# Description: The resulting composition is also suitable for lyophilization. The lyophilized form is then reconstituted with sterile water to the appropriate concentration prior to use.
# [5] = Arm A, weekly x3, dose escalation to 90 mg/m^2
compound,measurement,setting,value
"CN[C@H]1CN(c2ccc3c(=O)c(C(=O)O)cn(-c4nccs4)c3n2)C[C@@H]1OC [SNS-595, (+)-1,4-dihydro-7-[(3S,4S)-3-methoxy-4-(methylamino)-1-pyrrolidinyl]-4-oxo-1-(2-thiazolyl)-1,8-naphthyridine-3-carboxylic acid]",Clinical outcome of treatment,[1]; one patient,clinical benefit with reduction in splenomegaly and blast counts
same,Ultimate disease status,[1]; one patient,progressive disease
same,"White blood cell (WBC) count, earlier value ('was')","[1]; Around Day 35, before rise with Necrotizing fasciitis (NF) infection",7000
same,Absolute neutrophil count (ANC),[1]; Around Day 35,3139
same,Peripheral Blasts,"[1]; Around Day 35, one patient",33%
same,White blood cell (WBC) count,"[1]; Around Day 35, patient had Necrotizing fasciitis (NF) infection",16000
same,Absolute neutrophil count (ANC),[1]; Day 15,94
same,White blood cell (WBC) count,[1]; Day 15,600
same,Peripheral Blasts,"[1]; Day 15, one patient",No blasts
same,Clinical outcome of treatment,[2]; one patient,clinical benefit (i.e. hematological improvement) with reduction in blast counts
same,Absolute neutrophil count (ANC),[2]; At the time of undergoing treatment with third cycle,1600
same,Marrow blasts,"[2]; Post Cycle 1, baseline 20% blasts",8%
same,Circulating blasts,[2]; Post Cycle 2,4%
same,Marrow blasts,[2]; Post Cycle 2,1%
same,Circulating blasts,[2]; Post Cycle 3,8%
same,Circulating blasts,[2]; Post Cycle 4,12%
same,Dose-limiting toxicity (DLT),"[3]; Arm A, 27 mg/m^2 weekly dose (also had progressive disease)",G4 myelosuppression
same,Complete Responses (CR),"[3]; Arm A, 50 mg/m^2 dose level",1 patient
same,Dose-limiting toxicity (DLT),"[3]; Arm A, 50 mg/m^2 weekly dose",prolonged myelosuppression
same,Response of a patient with AML and splenomegaly,"[3]; Arm A, 72 mg/m^2",clinical benefit with reduction in splenomegaly and blast counts
same,Dose-limiting toxicity (DLT),"[3]; Arm A, 72 mg/m^2 weekly dose",bowel obstruction
same,Clinical activity: reductions in marrow blasts to ≦5%,"[3]; Arm A, doses at or above 50 mg/m^2",5 patients
same,Drug-related G3 & 4 events: diarrhea,"[3]; Arm A, weekly x3",1 patient
same,Drug-related G3 & 4 events: stomatitis,"[3]; Arm A, weekly x3",3 patients
same,Non-dose-limiting toxicities (non-DLTs),[3]; [5],nausea/vomiting and diarrhea
same,Number of dose-limiting toxicities (DLTs) observed,[3]; [5],Three
same,Clinical activity: reductions in marrow blasts to ≦5%,"[3]; Arm B, 40 mg/m^2",1 patient
same,Complete Responses (CR),"[3]; Arm B, 40 mg/m^2 level",1 patient
same,Response of a patient with AML and splenomegaly,"[3]; Arm B, 50 mg/m^2 dose level, patient had G3 mucositis",partial response
same,G3 mucositis,"[3]; Arm B, twice weekly x2, 40 mg/m^2",two patients out of 11
same,Dose-limiting toxicity (DLT) of Grade (G) 3 mucositis,"[3]; Arm B, twice weekly x2, 50 mg/m^2 dose level",3 patients
same,Tolerability in patients with advanced leukemias,[3]; Arms A and B,well-tolerated
same,Solubility,[4],increased solubility
